Publication PMC5267515, “In Vitro and Clinical Evaluations of the Drug-Drug Interaction Potential of a Metabotropic Glutamate 2/3 Receptor Agonist Prodrug with Intestinal Peptide Transporter 1” (Drug Metabolism and Disposition, 2017)
Entries after “also recorded” stand apart in the source; their conditions may differ. Where two headings read alike, the source gives them in different places. Non-standard residues stand in square brackets, D forms with d. Residues, ends and D or L forms follow the SMILES beside them. Sar = CNCC(=O)O

Experiments:
PEPT1 [1] = molecular target: T1, PEPT1 (Homo sapiens, UniProt P46059); set-up: expressed in transfected cells; method as in Han, 1999; conditions: CHO cells transfected with PEPT1, ref Han, 1999, cited from earlier work
T1 sequence (P46059 1-708): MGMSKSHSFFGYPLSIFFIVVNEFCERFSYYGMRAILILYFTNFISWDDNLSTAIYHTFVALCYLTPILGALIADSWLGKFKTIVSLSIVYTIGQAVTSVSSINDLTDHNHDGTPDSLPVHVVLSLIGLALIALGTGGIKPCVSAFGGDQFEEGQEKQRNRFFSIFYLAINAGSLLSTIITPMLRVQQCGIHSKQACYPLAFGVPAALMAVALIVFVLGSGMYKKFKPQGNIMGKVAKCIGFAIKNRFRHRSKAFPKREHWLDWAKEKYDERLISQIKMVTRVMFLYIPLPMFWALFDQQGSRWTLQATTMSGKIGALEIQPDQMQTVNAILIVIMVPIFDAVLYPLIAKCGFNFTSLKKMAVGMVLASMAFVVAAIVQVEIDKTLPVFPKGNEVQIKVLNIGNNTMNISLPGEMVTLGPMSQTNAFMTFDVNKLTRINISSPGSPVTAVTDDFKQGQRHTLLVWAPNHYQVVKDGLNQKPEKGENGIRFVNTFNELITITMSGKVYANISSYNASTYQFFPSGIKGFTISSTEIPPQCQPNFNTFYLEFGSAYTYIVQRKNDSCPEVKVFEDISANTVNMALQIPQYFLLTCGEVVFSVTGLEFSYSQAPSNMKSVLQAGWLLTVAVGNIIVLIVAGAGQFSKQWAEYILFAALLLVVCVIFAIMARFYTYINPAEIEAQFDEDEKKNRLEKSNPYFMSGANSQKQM

PEPT1 [2] = molecular target: T1, PEPT1; assay: Inhibition of PEPT1-mediated [14C]LY2140023 uptake in transfected HeLa cells; conditions: for IC50: 10 μM [14C]LY2140023
Description: Briefly, cells were seeded at a density of 65,000 cells/ml in 24-well plates. After achieving 50 to 80% confluency, cells were transfected with SLC15A1, gene for PEPT1 (accession number NM_005073) inserted in pcDNA3.1 or pcDNA3.1 empty vector (Invitrogen) using Fugene 6 (Roche, Indianapolis, IN) following the manufacturer’s protocol.
The solubility of compounds at these concentrations was checked by using a fiber-optic light source.
where [I] is an inhibitor concentration in micromoles. Top is the highest % activity in the absence of inhibitor, and S is the slope factor.

PEPT1 [3] = molecular target: T1, PEPT1; assay: System validation: proton- and concentration-dependent uptake of [14C]Gly-Sar in PEPT1 transfected HeLa cells; type: in vitro ADME; set-up: expressed in transfected cells; host or cells: HeLa cells (ATCC), transiently transfected with Fugene 6, pcDNA3.1 vector
Description: (§1) Assessment of both the proton-dependent uptake ([Liang et al., 1995]) and the concentration-dependent uptake of [^14C]Gly-Sar by the transiently transfected HeLa cells was used to validate the in vitro system. For proton-dependent uptake, [^14C]Gly-Sar was measured 24 hour post transfection at either pH 6.0 or 7.5. PEPT1- and empty vector-transfected cells were incubated with [^14C]Gly-Sar (50 µM) for 5 minutes at room temperature. Cells transfected with empty pcDNA3.1 vector were used to measure the passive diffusion of [^14C]Gly-Sar. For concentration-dependent uptake, transfected cells were incubated with [^14C]Gly-Sar at concentrations from 50 to 5000 µM for 3 minutes at room temperature. For both proton- and concentration-dependent experiments, cells were washed three times with ice-cold phosphate-buffered saline after incubation with Gly-Sar to stop uptake and then lysed with 0.3 ml 1% triton X-100 in phosphate-buffered saline for 30 minutes at room temperature. Scintillation counting was conducted to determine radioactivity, and protein levels were determined by the bicinchoninic acid method ([Smith et al., 1985]).

PEPT1 [4] = molecular target: T1, PEPT1; set-up: expressed in transfected cells; host or cells: HeLa cells (ATCC), transiently transfected with Fugene 6, pcDNA3.1 vector; method as in Zhang et al. (2004); conditions: Gly-Sar 50 μM; ref Zhang et al. (2004); read-out: IC50 against Gly-Sar; cited from earlier work
MDCK-MDR1 cells = system: MDCK-MDR1 cells; set-up: method as in data on file, Eli Lilly and Company; conditions: ref data on file, Eli Lilly and Company; cited from earlier work
[5] = Clinical drug interaction study (H8Y-MC-HBCF), plasma and urine pharmacokinetics in healthy subjects; conditions: for Vd/F: Vz/F; for Tmax: median (min–max)
Description: For the active moiety, the LLQ was 50 ng/ml and the ULQ was 5000 ng/ml.
Actual sampling times were used in the analyses with the exception of predose times, which were set to 0 hour. Area under the curve (AUC) values were determined using log-linear trapezoid methods.
The fraction of the dose excreted (fe) was also determined. For the active moiety dose, the 0.64 correction factor was used as described previously. […] The parameters were log transformed before analysis. The least squares means (LSM) for each treatment and the 90% confidence intervals (CI) for the difference in means between test and reference treatment groups were estimated from the model and back transformed from the log scale to provide estimates of the geometric means and 90% CIs for the ratio of geometric means. The analysis of tmax was based on a nonparametric method. Medians and range for treatments and the P value computed for comparison of median values using Wilcoxon signed rank test are presented.

PEPT1 [6] = molecular target: T1, PEPT1; assay: Proton- and time-dependent transport of prodrug and active moiety in PEPT1 transfected HeLa cells; type: in vitro ADME; set-up: expressed in transfected cells; host or cells: HeLa cells (ATCC), transiently transfected with Fugene 6, pcDNA3.1 vector; conditions: 30 μM, pH 6.0 or 7.5, PEPT1 vs empty vector transfected HeLa cells
Description: The PEPT1 mediated [^14C]LY2140023 (30 μM) and [^14C]LY404039 (30 μM) uptake was measured in cells 24 hours post transfection. The time-dependent transport of LY2140023 and LY404039 was conducted using buffers prepared at either pH 6.0 or 7.5 as described above. The cells transfected with empty pcDNA3.1 vector were used to measure the passive diffusion of LY2140023 and LY404039. The cells were incubated for 1, 2.5, 5, 7.5, 10, and 15 minutes at room temperature and were washed, lysed, and contents quantified as described above.

[7] = substrate: CSCC[C@H](N)C(=O)N[C@@]1(C(=O)O)CS(=O)(=O)[C@H]2[C@H](C(=O)O)[C@H]21; assay: Concentration-dependent uptake of [14C]LY2140023 in PEPT1 transfected HeLa cells (kinetic parameters); type: in vitro ADME, human
Description: The concentration dependent uptake of [^14C]LY2140023, ranging from 5 up to 149 μM, was determined in PEPT1 transfected HeLa cells with 2- to 3-minute incubation at room temperature. The mean passive diffusion of prodrug at each concentration was obtained in parallel experiments in HeLa cells transfected with pcDNA3.1 empty vector and subtracted from the uptake mediated by PEPT1. The corrected data were fitted by WinNonlin Professional, version 5.0.1 or 5.3 (Certara, L.P., St. Louis, MO). The kinetic parameters of the prodrug mediated by PEPT1 were estimated by utilizing the following equation: [drawing 1] where S is the substrate concentration (μM), Vmax is the maximum uptake rate (pmol/min/mg), and Km is the concentration where uptake reaches a half of Vmax (μM).

[8] = substrate: CN(CC(=O)O)C(=O)CN; assay: System validation: proton- and concentration-dependent uptake of [14C]Gly-Sar in PEPT1 transfected HeLa cells; type: in vitro ADME, human; conditions: other: 50 μM to 5 mM, pH 6.0
Description: as §1

[9] = IC50 against LY2140023, first of two separate experiments
[10] = IC50 against LY2140023, second of two separate experiments
[11] = Mean IC50 against LY2140023, mean of two separate experiments
[12] = LY2140023 + Valacyclovir vs LY2140023 Alone
[13] = other: experiment 1, 5 to 146 μM LY2140023, PEPT1 transfected HeLa cells, parameter ± S.E.M.
[14] = other: experiment 2, 6.4 to 149 μM LY2140023, PEPT1 transfected HeLa cells, parameter ± S.E.M.

CN(CC(=O)O)C(=O)CN [Gly-Sar, glycylsarcosine] (H-Gly-[Sar]-OH)
reported Vmax (PEPT1 [1]): 3517 pmol/min/mg | Km (PEPT1 [1]; read-out: reported Km): 500 µM | IC50 (PEPT1 [2]; [9]): 1.29 ± 0.26 mM | IC50 (PEPT1 [2]; [10]): 0.69 ± 0.17 mM | IC50 (PEPT1 [2]; [11]): 0.99 mM | transport at pH 6.0 relative to pH 7.5 (PEPT1 [3]; [14C]Gly-Sar 50 µM, 5 minutes, PEPT1 transfected HeLa cells): approximately five | passive diffusion rate (PEPT1 [3]; control cells (empty pcDNA3.1 vector)): 0.0972 µL/min/mg

CCOC(=O)[C@H](CCc1ccccc1)N[C@@H](C)C(=O)N1CCC[C@H]1C(=O)O [Enalapril]
IC50 (PEPT1 [2]; [9]): 11 ± 2.64 mM | IC50 (PEPT1 [2]; [10]): 10.3 ± 0.42 mM | IC50 (PEPT1 [2]; [11]): 10.7 mM | IC50 (PEPT1 [4]): 2.13 ± 0.36 mM

N[C@@H](Cc1ccc(O)c(O)c1)C(=O)O [L- DOPA, L-DOPA]
inhibition at 25000 µM (PEPT1 [2]; HeLa, read-out: inhibition of [14C]LY2140023 uptake): < 50% | IC50 (PEPT1 [2]; [9]): 25.3 ± 2.57 mM | IC50 (PEPT1 [2]; [10]): 26.5 ± 9.38 mM | IC50 (PEPT1 [2]; [11]): 25.9 mM | IC50 (PEPT1 [4]): 14.9 ± 2.45 mM

CC1=C(C(=O)O)N2C(=O)[C@@H](NC(=O)[C@H](N)c3ccc(O)cc3)[C@H]2SC1 [Cefadroxil]
IC50 (PEPT1 [2]; [9]): 4.05 ± 0.44 mM | IC50 (PEPT1 [2]; [10]): 5.93 ± 1.47 mM | IC50 (PEPT1 [2]; [11]): 4.99 mM | IC50 (PEPT1 [4]): 1.88 ± 0.35 mM

N[C@@]1(C(=O)O)CS(=O)(=O)[C@H]2[C@H](C(=O)O)[C@H]21 [LY404039]
passive permeability (MDCK-MDR1 cells): approximately 1 × 10^−6 cm/s | CL/F ([5]; LY2140023 80 mg + valacyclovir 1000 mg coadministered, geometric mean (CV%)): 20.5 (24) L/hour | AUC(0-∞) Ratio Test/Reference [5, 12]: 0.94 | Cmax Ratio Test/Reference [5, 12]: 0.92 | active moiety present at the first sampling time ([5]; after administration of the prodrug): 18 of 21 subjects | half-life ([5]; human, plasma, oral, 80 mg): 3.05 h | AUC(0-inf) ([5]; human, plasma, oral, 80 mg, AUC(0-∞) LS Geometric Mean, LY2140023 Alone (Reference)): 2670 ng·h/mL | AUC(0-inf) ([5]; human, plasma, oral, 80 mg, AUC(0-∞), single 80-mg dose of LY2140023 alone, geometric mean (CV%)): 2600 ng·h/mL | Cmax ([5]; human, plasma, oral, 80 mg, Cmax LS Geometric Mean, LY2140023 Alone (Reference)): 484 ng/mL | Cmax ([5]; human, plasma, oral, 80 mg, Cmax, single 80-mg dose of LY2140023 alone, geometric mean (CV%)): 477 ng/mL | Vd/F ([5]; human, plasma, oral, 80 mg, single 80-mg dose of LY2140023 alone, geometric mean (CV%)): 86.5 L | Tmax ([5]; human, plasma, oral, 80 mg, single 80-mg dose of LY2140023 alone): 4 h | AUC(0-inf) ([5]; human, plasma, oral, AUC(0-∞) LS Geometric Mean, LY2140023 + Valacyclovir (Test)): 2500 ng·h/mL | AUC(0-inf) ([5]; human, plasma, oral, AUC(0-∞), LY2140023 80 mg + valacyclovir 1000 mg coadministered, geometric mean (CV%)): 2490 ng·h/mL | Cmax ([5]; human, plasma, oral, Cmax LS Geometric Mean, LY2140023 + Valacyclovir (Test)): 447 ng/mL | Cmax ([5]; human, plasma, oral, Cmax, LY2140023 80 mg + valacyclovir 1000 mg coadministered, geometric mean (CV%)): 444 ng/mL | Vd/F ([5]; human, plasma, oral, LY2140023 80 mg + valacyclovir 1000 mg coadministered, geometric mean (CV%)): 92.2 L | Tmax ([5]; human, plasma, oral, LY2140023 80 mg + valacyclovir 1000 mg coadministered): 4 h | CL renal ([5]; human, urine and plasma, oral, 80 mg): 213 mL/min | CL/F ([5]; single 80-mg dose of LY2140023 alone, geometric mean (CV%)): 19.7 (16) L/hour | PEPT1 substrate status (PEPT1 [6]): is not a PEPT1 substrate; also recorded: not transported by PEPT1

NCC(=O)CCC(=O)O [ALA, 5-aminolevulinic acid]
IC50 (PEPT1 [2]; [9]): 1.77 ± 0.21 mM | IC50 (PEPT1 [2]; [10]): 1.56 ± 0.22 mM | IC50 (PEPT1 [2]; [11]): 1.67 mM | IC50 (PEPT1 [4]): 0.78 ± 0.26 mM

B1: PEPT1 (Homo sapiens) (protein)
chain: T1 sequence (P46059 1-708)
notes: expressed in transfected cells; host or cells: HeLa cells (ATCC), transiently transfected with Fugene 6, pcDNA3.1 vector
Km ([7]; other: approximate value over experiments): 30 µM | Km [7, 13]: 28.66 ± 5.01 µM | Vmax [7, 13]: 0.000238 µmol/min/mg | Km [7, 14]: 29.98 ± 5.29 µM | Vmax [7, 14]: 0.000573 µmol/min/mg | Km [8]: 427.9 µM | Vmax [8]: 3975.3 pmol/min/mg
